# Patent US20250353858A1, “CONDENSED HETEROCYCLIC COMPOUNDS AS INHIBITOR OF DIACYLGLYCEROL KINASES” (BEONE MEDICINES I GMBH, priority 2023, published 2025)
# pIC50: −log10 of the molar value.
# What was measured:
# DGKζ = DGKζ (Homo sapiens (Human), UniProt Q13574); assay: Biochemical DGK IC50 assay (ADP-Glo, lipid micelle substrate), DGKζ; details: full length DGKζ 0.5 nM, ATP 140 μM, DAG 80 μM
# Experimental: (§1) Enzymatic reactions of DGKζ, DGKα and DGKδ were performed using ADP-Glo assay with lipid micelle substrate. […] Full length DGKα (D21-10BG, SignalChem) and full length DGKδ (D23-10G, SignalChem) were purchased. Lipid micelle was prepared by dissolving DAG (Sigma, 317505-10MG) and PS (Sigma, P7769-100MG) with chloroform which was furtherly removed by rotary evaporation. The resulted product was resuspended in buffer containing 25 mM HEPES pH 7.0, 0.5 mM EDTA and 160 mM Octyl β-D glucopyranoside by vigorous mixing and ultrasonic (IID, Scientz).
# (§2) The inhibition activities testing for the compound disclosed herein were carried out at room temperature in assay buffer containing 50 mM HEPES, 10 mM MgCl2, 0.01% BSA, 0.1 mM Na3VO4, 0.005% Tween-20 and 0.01 mM CaCl2. Compounds in DMSO were dispensed into wells of a black 384 well plate (Corning 4514) using D300e digital dispenser (Tecan). […] 3 μL 2× enzyme solution was added to wells. […] After 1 hour reaction, 5 μL ADP-Glo reagent (Promga V9101) was added and incubated for 40 minutes. 10 μL Kinase Detection reagent was added and incubated for 30 minutes. Luminescence was measured on a microplate reader (PHERAstar FSX, BMG labtech). The IC50s are calculated based on inhibition of enzyme activity in the presence of increasing concentrations of compounds.
# Human His-TEV-DGK-zeta-pFastBac1 and human baculovirus samples was generated using the Bac-to-Bac baculovirus expression system (Invitrogen) according to the manufacturer's protocol. The DNA used for expression of DGK-zeta, have SEQ ID Nos: 1. Baculovirus amplification was achieved using infected SF9 cells at 1:2000 virus/cells ratios, and grown for 96 hours at 27° C. post-transfected.
# Full length human DGKζ produced as described above, was purified from Sf9 baculovirus-infected insect cell paste. The cells were lysed using sonication method, and the lysates were clarified by centrifugation.
# DGKα = DGKα (Homo sapiens (Human), UniProt P23743); assay: Biochemical DGK IC50 assay (ADP-Glo, lipid micelle substrate), DGKα; details: full length DGKα […], ATP 140 μM, DAG 80 μM; note: full length DGKα 7.5 nM
# Experimental: as §1, §2
# DGKα, sequence (P23743 whole entry): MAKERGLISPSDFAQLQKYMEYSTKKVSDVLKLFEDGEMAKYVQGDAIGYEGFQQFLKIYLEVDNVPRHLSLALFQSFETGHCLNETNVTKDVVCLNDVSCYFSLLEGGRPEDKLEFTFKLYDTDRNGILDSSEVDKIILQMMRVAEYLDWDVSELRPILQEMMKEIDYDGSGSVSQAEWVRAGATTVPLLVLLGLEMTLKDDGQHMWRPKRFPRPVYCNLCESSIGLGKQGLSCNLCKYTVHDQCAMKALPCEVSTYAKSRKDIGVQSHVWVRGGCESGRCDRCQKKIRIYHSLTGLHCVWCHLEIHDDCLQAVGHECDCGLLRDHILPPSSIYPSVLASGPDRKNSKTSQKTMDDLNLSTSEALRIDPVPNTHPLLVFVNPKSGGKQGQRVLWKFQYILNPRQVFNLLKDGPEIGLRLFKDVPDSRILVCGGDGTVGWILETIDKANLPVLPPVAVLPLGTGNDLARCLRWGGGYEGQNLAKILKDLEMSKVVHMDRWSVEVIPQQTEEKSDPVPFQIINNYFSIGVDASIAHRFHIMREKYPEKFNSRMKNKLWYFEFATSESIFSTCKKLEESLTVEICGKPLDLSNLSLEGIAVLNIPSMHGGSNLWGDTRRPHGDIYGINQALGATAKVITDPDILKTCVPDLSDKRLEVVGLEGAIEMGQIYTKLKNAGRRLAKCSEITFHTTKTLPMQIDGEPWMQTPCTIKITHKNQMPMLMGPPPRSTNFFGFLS
# DGKζ, sequence (Q13574 other isoform, or with tags, fused parts or gaps): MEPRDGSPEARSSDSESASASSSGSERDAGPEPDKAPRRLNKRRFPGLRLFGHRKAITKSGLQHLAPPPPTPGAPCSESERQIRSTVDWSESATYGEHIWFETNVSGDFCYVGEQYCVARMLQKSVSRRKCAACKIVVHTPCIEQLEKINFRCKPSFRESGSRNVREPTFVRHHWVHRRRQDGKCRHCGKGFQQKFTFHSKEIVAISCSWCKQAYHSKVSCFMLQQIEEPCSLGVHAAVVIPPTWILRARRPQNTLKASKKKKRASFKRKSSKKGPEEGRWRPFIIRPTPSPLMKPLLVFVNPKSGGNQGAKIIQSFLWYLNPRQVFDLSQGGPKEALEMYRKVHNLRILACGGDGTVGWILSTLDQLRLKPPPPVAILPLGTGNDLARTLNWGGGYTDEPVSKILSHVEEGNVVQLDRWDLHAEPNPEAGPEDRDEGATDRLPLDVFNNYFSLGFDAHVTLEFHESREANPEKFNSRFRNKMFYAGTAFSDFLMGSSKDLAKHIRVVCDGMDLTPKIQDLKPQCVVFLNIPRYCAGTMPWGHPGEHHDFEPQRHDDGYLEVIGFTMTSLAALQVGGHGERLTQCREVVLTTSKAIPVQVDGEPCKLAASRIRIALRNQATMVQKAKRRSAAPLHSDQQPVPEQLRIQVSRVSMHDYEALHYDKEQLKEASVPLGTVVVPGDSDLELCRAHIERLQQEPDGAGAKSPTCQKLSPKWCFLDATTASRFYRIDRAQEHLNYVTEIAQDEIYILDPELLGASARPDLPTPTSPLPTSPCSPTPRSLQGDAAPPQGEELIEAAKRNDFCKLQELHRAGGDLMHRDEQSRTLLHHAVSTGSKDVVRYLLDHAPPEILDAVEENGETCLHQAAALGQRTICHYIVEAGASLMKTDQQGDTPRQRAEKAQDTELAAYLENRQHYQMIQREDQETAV
Compound,pIC50 (DGKζ),pIC50 (DGKα)
"CC(c1ccc2nccnc2c1)N1C[C@H](C)N(c2cc(=O)n(C)c3cc(CC#N)nn23)C[C@H]1C (mixture of isomers) [Compound A2, 2-(7-((2S,5R)-2,5-dimethyl-4-(1-(quinoxalin-6-yl)ethyl)piperazin-1-yl)-4-methyl-5-oxo-4,5-dihydropyrazolo[1,5-a]pyrimidin-2-yl)acetonitrile]",7.30,5.51
"CC(c1ccc2nccnc2c1)N1C[C@H](C)N(c2cc(=O)n(C)c3cc(CC#N)nn23)C[C@H]1C (single isomer, unassigned) [Compound A2a]",5.77,< 5.00
"CC(c1ccc2nccnc2c1)N1C[C@H](C)N(c2cc(=O)n(C)c3cc(CC#N)nn23)C[C@H]1C (single isomer, unassigned) [Compound A2b]",7.49,5.22
"CC[C@@H]1CN(c2cc(=O)[nH]c3cc(CC#N)nn23)[C@@H](C)CN1C(C)c1ccc2nccnc2c1 (single isomer, unassigned) [Compound A4a]",6.82,4.19
"CC[C@@H]1CN(c2cc(=O)[nH]c3cc(CC#N)nn23)[C@@H](C)CN1C(C)c1ccc2nccnc2c1 (single isomer, unassigned) [Compound A4b]",5.13,< 5.00
"CC(c1ccc2c(c1)OC(C)(C)CO2)N1C[C@H](C)N(c2c(C#N)c(=O)n(C)c3cc(CC#N)nn23)C[C@H]1C (single isomer, unassigned) [Compound A12a]",7.96,4.90
"CC(c1ccc2c(c1)OC(C)(C)CO2)N1C[C@H](C)N(c2c(C#N)c(=O)n(C)c3cc(CC#N)nn23)C[C@H]1C (single isomer, unassigned) [Compound A12b]",5.94,4.98
"CC[C@@H]1CN(c2c(F)c(=O)n(C)c3cc(CC#N)nn23)[C@@H](C)CN1C(C)c1ccc(C2CC2)nc1 (single isomer, unassigned) [Compound A24a]",5.41,5.57
"CC[C@@H]1CN(c2c(F)c(=O)n(C)c3cc(CC#N)nn23)[C@@H](C)CN1C(C)c1ccc(C2CC2)nc1 (single isomer, unassigned) [Compound A24b]",5.58,5.35
"CC[C@@H]1CN(c2cc(=O)n(C)c3cc(CC#N)nn23)[C@@H](C)CN1C(C)c1ccc2ncsc2c1 (single isomer, unassigned) [Compound A28a]",7.68,6.63
"CC[C@@H]1CN(c2cc(=O)n(C)c3cc(CC#N)nn23)[C@@H](C)CN1C(C)c1ccc2ncsc2c1 (single isomer, unassigned) [Compound A28b]",5.65,5.83
"CC[C@@H]1CN(c2cc(=O)n(C)c3cc(CC#N)nn23)[C@@H](C)CN1[C@@H](C)c1ccc2ncsc2n1 (single isomer, unassigned) [Compound A29a]",7.38,6.67
"CC[C@@H]1CN(c2cc(=O)n(C)c3cc(CC#N)nn23)[C@@H](C)CN1[C@H](C)c1ccc2ncsc2n1 (single isomer, unassigned) [Compound A29b]",5.81,5.80
"CC(c1ccc2nccnc2c1)N1CCC(c2cc(=O)n(C)c3cc(CC#N)nn23)C[C@H]1C (single isomer, unassigned) [Compound A33a]",< 5.00,< 5.00
"CC(c1ccc2nccnc2c1)N1CCC(c2cc(=O)n(C)c3cc(CC#N)nn23)C[C@@H]1C (single isomer, unassigned) [Compound A34a]",5.24,< 3.82
"CC(c1ccc2nccnc2c1)N1CCC(c2cc(=O)n(C)c3cc(CC#N)nn23)C[C@@H]1C (single isomer, unassigned) [Compound A34b]",< 5.00,< 3.82
"CC[C@H]1CN(C(C)c2ccc3nc(C)sc3n2)[C@H](CC)CN1c1cc(=O)n(C)c2cc(CC#N)nn12 (single isomer, unassigned) [Compound A35a]",5.33,5.65
"CC[C@H]1CN(C(C)c2ccc3nc(C)sc3n2)[C@H](CC)CN1c1cc(=O)n(C)c2cc(CC#N)nn12 (single isomer, unassigned) [Compound A35b]",7.51,7.14
"CC[C@H]1CN(C(C)c2ccc3cc(C(F)F)sc3n2)[C@H](CC)CN1c1cc(=O)n(C)c2cc(CC#N)nn12 (single isomer, unassigned) [Compound A37a]",5.80,6.70

Compound,pIC50 (DGKζ),pIC50 (DGKα)
"CC[C@H]1CN(C(C)c2ccc3cc(C(F)F)sc3n2)[C@H](CC)CN1c1cc(=O)n(C)c2cc(CC#N)nn12 (single isomer, unassigned) [Compound A37b]",7.08,7.62
"CC[C@H]1CN(C(C)c2ccc3nc(C)cn3n2)[C@H](CC)CN1c1cc(=O)n(C)c2cc(CC#N)nn12 (single isomer, unassigned) [Compound A38a]",< 5.00,5.41
"CC[C@H]1CN(C(C)c2ccc3nc(C)cn3n2)[C@H](CC)CN1c1cc(=O)n(C)c2cc(CC#N)nn12 (single isomer, unassigned) [Compound A38b]",6.33,6.69
"CC[C@H]1CN(C(C)c2ccn3nccc3n2)[C@H](CC)CN1c1cc(=O)n(C)c2cc(CC#N)nn12 (single isomer, unassigned) [Compound A39a]",< 5.00,6.23
"CC[C@H]1CN(C(C)c2ccn3nccc3n2)[C@H](CC)CN1c1cc(=O)n(C)c2cc(CC#N)nn12 (single isomer, unassigned) [Compound A39b]",6.98,7.28
"CC[C@H]1CN(C(C)c2ccn3nc(C)cc3n2)[C@H](CC)CN1c1cc(=O)n(C)c2cc(CC#N)nn12 (single isomer, unassigned) [Compound A40a]",5.24,5.81
"CC[C@H]1CN(C(C)c2ccn3nc(C)cc3n2)[C@H](CC)CN1c1cc(=O)n(C)c2cc(CC#N)nn12 (single isomer, unassigned) [Compound A40b]",7.28,7.21
"CC[C@H]1CN(C(C)c2ccn3nc(F)cc3n2)[C@H](CC)CN1c1cc(=O)n(C)c2cc(CC#N)nn12 (single isomer, unassigned) [Compound A41a]",7.10,7.60
"CC[C@H]1CN(C(C)c2ccn3nc(F)cc3n2)[C@H](CC)CN1c1cc(=O)n(C)c2cc(CC#N)nn12 (single isomer, unassigned) [Compound A41b]",5.34,5.80
"CC[C@H]1CN(C(C)c2ccc3nc(C)cn3n2)[C@H](CC)CN1c1nc(=O)n(C)c2cc(CC#N)nn12 (single isomer, unassigned) [Compound A45a]",< 5.00,5.73
"CC[C@H]1CN(C(C)c2ccc3nc(C)cn3n2)[C@H](CC)CN1c1nc(=O)n(C)c2cc(CC#N)nn12 (single isomer, unassigned) [Compound A45b]",6.94,7.18
"CC[C@H]1CN(C(C)c2ccc3nc(C)c(F)n3n2)[C@H](CC)CN1c1nc(=O)n(C)c2cc(CC#N)nn12 (single isomer, unassigned) [Compound A48a]",< 5.00,5.27
"CC[C@H]1CN(C(C)c2ccc3nc(C)c(F)n3n2)[C@H](CC)CN1c1nc(=O)n(C)c2cc(CC#N)nn12 (single isomer, unassigned) [Compound A48b]",7.62,7.20
"CC[C@H]1CN(C(C)c2ccc3nc(C)sc3c2)[C@H](CC)CN1c1nc(=O)n(C)c2cc(CC#N)nn12 (single isomer, unassigned) [Compound A53a]",7.70,6.94
"CC[C@H]1CN(C(C)c2ccc3nc(C)sc3c2)[C@H](CC)CN1c1nc(=O)n(C)c2cc(CC#N)nn12 (single isomer, unassigned) [Compound A53b]",6.26,6.02
"CC[C@H]1CN(C(C)c2ccn3nc(C4CC4)cc3n2)[C@H](CC)CN1c1nc(=O)n(C)c2cc(CC#N)nn12 (single isomer, unassigned) [Compound A54a]",5.31,6.31
"CC[C@H]1CN(C(C)c2ccn3nc(C4CC4)cc3n2)[C@H](CC)CN1c1nc(=O)n(C)c2cc(CC#N)nn12 (single isomer, unassigned) [Compound A54b]",7.72,7.16
"CC(c1ccc2nccnc2c1)N1C[C@H](C)N(c2cc(=O)n(C)c3cc(C#N)nn23)C[C@H]1C (stereo partly drawn) [Compound A1, 7-((2S,5R)-2,5-dimethyl-4-(1-(quinoxalin-6-yl)ethyl)piperazin-1-yl)-4-methyl-5-oxo-4,5-dihydropyrazolo[1,5-a]pyrimidine-2-carbonitrile]",6.00,6.09
